Several values for one entry are separate records, joined by “and”; a condition that tells them apart may be missing. Equal entries are not always repeated.
Tests used:
[1] = target: ALK tyrosine kinase receptor (Homo sapiens) (UniProt Q9UM73); experiment: Inhibition of human ALK assessed as percent of control at 2000 nM by KINOMEscan assay relative to control; set-up: scale not given: the % may be the effect or the level left
[2] = target: Mitogen-activated protein kinase kinase kinase 6 (Homo sapiens) (UniProt O95382); experiment: Inhibition of human ASK2 assessed as percent of control at 2000 nM by KINOMEscan assay relative to control; set-up: scale not given: the % may be the effect or the level left
[3] = target: Macrophage colony-stimulating factor 1 receptor (Homo sapiens) (UniProt P07333); experiment: Inhibition of human autoinhibited CSF1R assessed as percent of control at 2000 nM by KINOMEscan assay relative to control; set-up: scale not given: the % may be the effect or the level left
[4] = target: Casein kinase I isoform alpha-like (Homo sapiens) (UniProt Q8N752); experiment: Inhibition of human CSNK1A1L assessed as percent of control at 2000 nM by KINOMEscan assay relative to control; set-up: scale not given: the % may be the effect or the level left
[5] = target: Ephrin type-A receptor 8 (Homo sapiens) (UniProt P29322); experiment: Inhibition of human EPHA8 assessed as percent of control at 2000 nM by KINOMEscan assay relative to control; set-up: scale not given: the % may be the effect or the level left
[6] = target: Focal adhesion kinase 1 (Homo sapiens) (UniProt Q05397); experiment: Inhibition of human FAK assessed as percent of control at 2000 nM by KINOMEscan assay relative to control; set-up: scale not given: the % may be the effect or the level left
[7] = target: Fibroblast growth factor receptor 1 (Homo sapiens) (UniProt P11362); experiment: Inhibition of human FGFR1 assessed as percent of control at 2000 nM by KINOMEscan assay relative to control; set-up: scale not given: the % may be the effect or the level left
[8] = target: Fibroblast growth factor receptor 3 (Homo sapiens) (UniProt P22607); experiment: Inhibition of human FGFR3 assessed as percent of control at 2000 nM by KINOMEscan assay relative to control; set-up: scale not given: the % may be the effect or the level left
Fibroblast growth factor receptor 3 (Homo sapiens), sequence (P22607 23-806 limits assumed): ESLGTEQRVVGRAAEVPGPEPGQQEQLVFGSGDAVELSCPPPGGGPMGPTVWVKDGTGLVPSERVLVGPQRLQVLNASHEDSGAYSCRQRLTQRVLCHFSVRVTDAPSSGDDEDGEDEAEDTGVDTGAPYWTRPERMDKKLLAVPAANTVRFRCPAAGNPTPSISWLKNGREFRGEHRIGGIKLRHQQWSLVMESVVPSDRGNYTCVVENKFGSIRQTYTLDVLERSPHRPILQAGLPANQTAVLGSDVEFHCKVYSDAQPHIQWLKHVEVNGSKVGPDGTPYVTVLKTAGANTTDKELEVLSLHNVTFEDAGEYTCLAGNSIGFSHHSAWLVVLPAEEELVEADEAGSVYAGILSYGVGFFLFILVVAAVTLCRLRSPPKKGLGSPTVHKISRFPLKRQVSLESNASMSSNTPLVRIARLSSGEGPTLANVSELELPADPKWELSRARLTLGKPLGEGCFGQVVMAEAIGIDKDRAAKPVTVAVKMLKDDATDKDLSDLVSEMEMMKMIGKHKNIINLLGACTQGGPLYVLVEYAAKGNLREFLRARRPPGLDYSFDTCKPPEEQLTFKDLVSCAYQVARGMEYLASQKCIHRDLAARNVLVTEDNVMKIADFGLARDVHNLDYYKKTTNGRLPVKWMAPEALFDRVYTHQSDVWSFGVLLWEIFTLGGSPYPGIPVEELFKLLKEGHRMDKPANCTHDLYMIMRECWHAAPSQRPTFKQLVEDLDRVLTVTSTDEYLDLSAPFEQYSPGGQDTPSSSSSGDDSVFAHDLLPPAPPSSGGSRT

[9] = test system: Receptor-type tyrosine-protein kinase FLT3 (Homo sapiens), P36888 [D835V]; experiment: Inhibition of human FLT3 D835V mutant assessed as percent of control at 2000 nM by KINOMEscan assay relative to control; set-up: scale not given: the % may be the effect or the level left; details: INHIBITOR
[10] = target: Receptor-type tyrosine-protein kinase FLT3 (Homo sapiens) (UniProt P36888); experiment: Inhibition of human autoinhibited FLT3 assessed as percent of control at 2000 nM by KINOMEscan assay relative to control; set-up: scale not given: the % may be the effect or the level left
[11] = target: Cyclin-G-associated kinase (Homo sapiens) (UniProt O14976); experiment: Inhibition of human GAK assessed as percent of control at 2000 nM by KINOMEscan assay relative to control; set-up: scale not given: the % may be the effect or the level left
[12] = target: Insulin receptor (Homo sapiens) (UniProt P06213); experiment: Inhibition of human INSR assessed as percent of control at 2000 nM by KINOMEscan assay relative to control; set-up: scale not given: the % may be the effect or the level left
[13] = target: Tyrosine-protein kinase JAK2 (Homo sapiens) (UniProt O60674); experiment: Inhibition of human JAK2 JH1 catalytic domain assessed as percent of control at 2000 nM by KINOMEscan assay relative to control; set-up: scale not given: the % may be the effect or the level left
Tyrosine-protein kinase JAK2 (Homo sapiens), sequence (O60674 whole entry, the tested form may be a part): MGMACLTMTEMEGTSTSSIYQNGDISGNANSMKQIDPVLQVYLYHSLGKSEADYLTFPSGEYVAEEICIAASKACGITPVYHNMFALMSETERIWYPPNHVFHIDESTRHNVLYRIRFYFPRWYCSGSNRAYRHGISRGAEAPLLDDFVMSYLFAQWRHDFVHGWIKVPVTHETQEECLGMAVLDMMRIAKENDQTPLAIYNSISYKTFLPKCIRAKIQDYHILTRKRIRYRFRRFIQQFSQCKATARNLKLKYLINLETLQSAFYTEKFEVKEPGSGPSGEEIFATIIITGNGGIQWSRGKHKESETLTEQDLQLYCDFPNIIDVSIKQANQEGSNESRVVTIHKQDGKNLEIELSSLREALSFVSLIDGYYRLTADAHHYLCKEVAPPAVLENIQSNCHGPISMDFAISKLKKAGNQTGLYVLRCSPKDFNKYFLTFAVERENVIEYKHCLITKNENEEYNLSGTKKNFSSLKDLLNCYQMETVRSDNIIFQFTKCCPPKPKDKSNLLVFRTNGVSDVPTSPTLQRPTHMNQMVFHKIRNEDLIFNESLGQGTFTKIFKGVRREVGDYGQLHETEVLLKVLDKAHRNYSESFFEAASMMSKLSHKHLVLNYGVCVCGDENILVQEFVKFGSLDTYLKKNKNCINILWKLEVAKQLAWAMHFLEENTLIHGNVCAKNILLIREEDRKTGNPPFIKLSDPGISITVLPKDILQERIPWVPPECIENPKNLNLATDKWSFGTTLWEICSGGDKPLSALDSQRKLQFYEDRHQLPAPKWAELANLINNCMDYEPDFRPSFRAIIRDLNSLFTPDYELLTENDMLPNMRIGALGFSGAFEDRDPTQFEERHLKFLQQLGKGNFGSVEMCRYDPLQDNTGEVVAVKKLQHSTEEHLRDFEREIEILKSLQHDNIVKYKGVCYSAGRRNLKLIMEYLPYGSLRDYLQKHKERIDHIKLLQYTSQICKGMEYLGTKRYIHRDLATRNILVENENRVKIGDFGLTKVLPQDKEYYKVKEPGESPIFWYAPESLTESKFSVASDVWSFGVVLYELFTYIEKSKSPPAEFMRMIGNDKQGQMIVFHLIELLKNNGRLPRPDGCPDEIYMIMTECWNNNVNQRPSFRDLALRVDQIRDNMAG

[14] = target: Mitogen-activated protein kinase kinase kinase 4 (Homo sapiens) (UniProt Q9Y6R4); experiment: Inhibition of human MAP3K4 assessed as percent of control at 2000 nM by KINOMEscan assay relative to control; set-up: scale not given: the % may be the effect or the level left
[15] = target: Serine/threonine-protein kinase 3 (Homo sapiens) (UniProt Q13188); experiment: Inhibition of human MST2 assessed as percent of control at 2000 nM by KINOMEscan assay relative to control; set-up: scale not given: the % may be the effect or the level left
[16] = target: Myosin light chain kinase, smooth muscle (Homo sapiens) (UniProt Q15746); experiment: Inhibition of human MYLK assessed as percent of control at 2000 nM by KINOMEscan assay relative to control; set-up: scale not given: the % may be the effect or the level left
[17] = target: Serine/threonine-protein kinase Nek7 (Homo sapiens) (UniProt Q8TDX7); experiment: Inhibition of human NEK7 assessed as percent of control at 2000 nM by KINOMEscan assay relative to control; set-up: scale not given: the % may be the effect or the level left
[18] = target: Mitogen-activated protein kinase kinase kinase 14 (Homo sapiens) (UniProt Q99558); experiment: Inhibition of human NIK assessed as percent of control at 2000 nM by KINOMEscan assay relative to control; set-up: scale not given: the % may be the effect or the level left
Mitogen-activated protein kinase kinase kinase 14 (Homo sapiens), sequence (Q99558 whole entry, looked up): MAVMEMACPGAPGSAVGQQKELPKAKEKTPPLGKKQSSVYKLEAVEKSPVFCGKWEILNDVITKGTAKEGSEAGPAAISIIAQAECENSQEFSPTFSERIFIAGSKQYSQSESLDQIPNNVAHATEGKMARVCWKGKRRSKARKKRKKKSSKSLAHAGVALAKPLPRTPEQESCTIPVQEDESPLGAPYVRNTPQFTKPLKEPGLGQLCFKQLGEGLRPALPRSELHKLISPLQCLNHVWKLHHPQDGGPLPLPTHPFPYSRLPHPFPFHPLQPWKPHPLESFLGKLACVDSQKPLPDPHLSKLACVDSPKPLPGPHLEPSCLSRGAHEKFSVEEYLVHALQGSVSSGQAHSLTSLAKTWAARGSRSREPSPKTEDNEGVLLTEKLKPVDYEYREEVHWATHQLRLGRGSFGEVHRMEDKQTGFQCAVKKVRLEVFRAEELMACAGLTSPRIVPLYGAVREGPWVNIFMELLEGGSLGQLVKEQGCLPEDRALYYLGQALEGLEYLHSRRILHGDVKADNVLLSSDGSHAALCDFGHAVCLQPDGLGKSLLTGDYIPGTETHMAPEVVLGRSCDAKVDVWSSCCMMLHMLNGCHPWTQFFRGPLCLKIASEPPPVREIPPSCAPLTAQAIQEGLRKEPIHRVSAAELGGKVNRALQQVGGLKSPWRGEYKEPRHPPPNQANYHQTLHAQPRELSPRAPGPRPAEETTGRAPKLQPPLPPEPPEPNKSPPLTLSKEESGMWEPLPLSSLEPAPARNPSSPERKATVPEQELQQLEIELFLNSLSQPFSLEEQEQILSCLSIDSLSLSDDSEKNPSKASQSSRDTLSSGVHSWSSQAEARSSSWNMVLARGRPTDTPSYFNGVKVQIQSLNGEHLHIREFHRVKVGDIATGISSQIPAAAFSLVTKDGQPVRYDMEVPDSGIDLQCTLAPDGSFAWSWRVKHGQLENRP

[19] = target: Cyclin-dependent kinase 15 (Homo sapiens) (UniProt Q96Q40); experiment: Inhibition of human PFTAIRE2 assessed as percent of control at 2000 nM by KINOMEscan assay relative to control; set-up: scale not given: the % may be the effect or the level left
[20] = target: Phosphorylase b kinase gamma catalytic chain, liver/testis isoform (Homo sapiens) (UniProt P15735); experiment: Inhibition of human PHKG2 assessed as percent of control at 2000 nM by KINOMEscan assay relative to control; set-up: scale not given: the % may be the effect or the level left
[21] = test system: Phosphatidylinositol 4,5-bisphosphate 3-kinase catalytic subunit alpha isoform (Homo sapiens), P42336 [H1047Y]; experiment: Inhibition of human PIK3CA H1047Y mutant assessed as percent of control at 2000 nM by KINOMEscan assay relative to control; set-up: scale not given: the % may be the effect or the level left
[22] = test system: Phosphatidylinositol 4,5-bisphosphate 3-kinase catalytic subunit alpha isoform (Homo sapiens), P42336 [I800L]; experiment: Inhibition of human PIK3CA I800L mutant assessed as percent of control at 2000 nM by KINOMEscan assay relative to control; set-up: scale not given: the % may be the effect or the level left
[23] = target: Protein kinase C delta type (Homo sapiens) (UniProt Q05655); experiment: Inhibition of human PRKCD assessed as percent of control at 2000 nM by KINOMEscan assay relative to control; set-up: scale not given: the % may be the effect or the level left
[24] = target: Receptor-interacting serine/threonine-protein kinase 4 (Homo sapiens) (UniProt P57078); experiment: Inhibition of human RIPK4 assessed as percent of control at 2000 nM by KINOMEscan assay relative to control; set-up: scale not given: the % may be the effect or the level left
[25] = target: Ribosomal protein S6 kinase alpha-1 (Homo sapiens) (UniProt Q15418); experiment: Inhibition of human N-terminal RSK1 kinase domain 1 assessed as percent of control at 2000 nM by KINOMEscan assay relative to control; set-up: scale not given: the % may be the effect or the level left
[26] = target: Serine/threonine-protein kinase Sgk1 (Homo sapiens) (UniProt O00141); experiment: Inhibition of human SGK assessed as percent of control at 2000 nM by KINOMEscan assay relative to control; set-up: scale not given: the % may be the effect or the level left
[27] = target: Tyrosine-protein kinase Tec (Homo sapiens) (UniProt P42680); experiment: Inhibition of human TEC assessed as percent of control at 2000 nM by KINOMEscan assay relative to control; set-up: scale not given: the % may be the effect or the level left
Tyrosine-protein kinase Tec (Homo sapiens), sequence (P42680 whole entry): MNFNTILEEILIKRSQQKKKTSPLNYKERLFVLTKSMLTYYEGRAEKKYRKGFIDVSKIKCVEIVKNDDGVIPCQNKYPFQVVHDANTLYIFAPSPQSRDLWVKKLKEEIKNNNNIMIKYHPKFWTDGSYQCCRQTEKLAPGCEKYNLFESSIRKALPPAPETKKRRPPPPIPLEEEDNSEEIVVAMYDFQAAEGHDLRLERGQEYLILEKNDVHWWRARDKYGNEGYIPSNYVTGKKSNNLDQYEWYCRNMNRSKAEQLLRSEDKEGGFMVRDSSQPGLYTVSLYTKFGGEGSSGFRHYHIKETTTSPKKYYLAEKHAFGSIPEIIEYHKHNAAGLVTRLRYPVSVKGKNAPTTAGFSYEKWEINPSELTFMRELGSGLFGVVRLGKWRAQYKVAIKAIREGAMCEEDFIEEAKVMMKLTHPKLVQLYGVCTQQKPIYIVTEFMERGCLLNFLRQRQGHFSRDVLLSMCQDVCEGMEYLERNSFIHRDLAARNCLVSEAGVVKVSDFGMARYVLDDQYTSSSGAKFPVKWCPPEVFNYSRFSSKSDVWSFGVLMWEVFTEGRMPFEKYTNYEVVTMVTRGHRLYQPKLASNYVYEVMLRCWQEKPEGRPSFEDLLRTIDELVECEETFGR

[28] = target: Serine/threonine-protein kinase ULK1 (Homo sapiens) (UniProt O75385); experiment: Inhibition of human ULK1 assessed as percent of control at 2000 nM by KINOMEscan assay relative to control; set-up: scale not given: the % may be the effect or the level left
[29] = target: Serine/threonine-protein kinase ULK2 (Homo sapiens) (UniProt Q8IYT8); experiment: Inhibition of human ULK2 assessed as percent of control at 2000 nM by KINOMEscan assay relative to control; set-up: scale not given: the % may be the effect or the level left
[30] = target: Mitogen-activated protein kinase kinase kinase 19 (Homo sapiens) (UniProt Q56UN5); experiment: Inhibition of human YSK4 assessed as percent of control at 2000 nM by KINOMEscan assay relative to control; set-up: scale not given: the % may be the effect or the level left
Mitogen-activated protein kinase kinase kinase 19 (Homo sapiens), sequence (Q56UN5 whole entry, canonical isoform): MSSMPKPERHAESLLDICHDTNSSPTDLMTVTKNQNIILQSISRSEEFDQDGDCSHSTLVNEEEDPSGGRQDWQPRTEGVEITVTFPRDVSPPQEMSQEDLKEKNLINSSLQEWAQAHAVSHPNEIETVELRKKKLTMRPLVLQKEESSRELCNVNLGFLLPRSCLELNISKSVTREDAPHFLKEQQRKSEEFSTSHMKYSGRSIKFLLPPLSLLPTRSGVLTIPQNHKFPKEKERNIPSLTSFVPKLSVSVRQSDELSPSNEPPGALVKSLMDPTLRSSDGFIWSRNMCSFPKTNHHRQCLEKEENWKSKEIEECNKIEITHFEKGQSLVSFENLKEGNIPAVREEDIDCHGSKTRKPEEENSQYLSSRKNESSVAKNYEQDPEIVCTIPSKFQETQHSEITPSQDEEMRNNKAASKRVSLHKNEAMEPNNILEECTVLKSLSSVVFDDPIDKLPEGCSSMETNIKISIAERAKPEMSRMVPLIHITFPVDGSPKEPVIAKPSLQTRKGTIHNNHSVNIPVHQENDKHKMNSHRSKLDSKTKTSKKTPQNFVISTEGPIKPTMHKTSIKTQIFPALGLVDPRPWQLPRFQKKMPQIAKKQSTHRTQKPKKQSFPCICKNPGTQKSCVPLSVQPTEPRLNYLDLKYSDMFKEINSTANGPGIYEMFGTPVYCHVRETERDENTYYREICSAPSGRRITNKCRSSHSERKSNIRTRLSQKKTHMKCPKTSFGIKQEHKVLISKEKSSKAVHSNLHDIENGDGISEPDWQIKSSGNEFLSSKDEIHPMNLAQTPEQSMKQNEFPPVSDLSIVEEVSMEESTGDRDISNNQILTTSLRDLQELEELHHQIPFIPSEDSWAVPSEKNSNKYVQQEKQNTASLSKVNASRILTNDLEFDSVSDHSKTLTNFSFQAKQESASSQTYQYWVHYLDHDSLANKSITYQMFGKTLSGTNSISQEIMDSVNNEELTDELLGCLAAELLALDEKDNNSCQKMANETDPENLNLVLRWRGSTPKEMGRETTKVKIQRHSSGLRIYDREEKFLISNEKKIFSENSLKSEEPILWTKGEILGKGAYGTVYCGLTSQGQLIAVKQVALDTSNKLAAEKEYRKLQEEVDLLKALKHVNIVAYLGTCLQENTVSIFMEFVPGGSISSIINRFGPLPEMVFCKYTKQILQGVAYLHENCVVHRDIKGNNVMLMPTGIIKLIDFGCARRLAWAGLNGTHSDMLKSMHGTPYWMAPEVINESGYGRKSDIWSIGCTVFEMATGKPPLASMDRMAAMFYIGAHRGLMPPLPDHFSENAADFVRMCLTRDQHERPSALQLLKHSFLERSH

[31] = target: Casein kinase I isoform epsilon (Homo sapiens) (UniProt P49674); details: INHIBITOR, dose 2000.0 nM
Description: Inhibition of human CSNK1E at 2000 nM by KINOMEscan assay

With `CN(C)C(=O)c1ccc(N2CCCN(c3ccnc4sc(C(N)=O)c(N)c34)CC2)cc1` the Activity [1] was 81% and 78%, the Activity [2] was 90% and 88% and the Activity [3] was 88% and 83%. For the same compound, the Activity [4] was 67%, the Activity ([4]; INHIBITOR) was 37% and the Activity [5] was 94% and 83%. For the same compound, the Activity [6] was 100% and 96%, the Activity [7] was 98% and 92% and the Activity [8] was 98% and 99%. For the same compound, the Activity [9] was 33% and 14%, the Activity [10] was 72% and 77% and the Activity [11] was 88% and 94%. The Activity [12] was 97% and 80%, the Activity [13] was 100% and 93% and the Activity [14] was 90% and 100%. For the same compound, the Activity [15] was 100% and 84%, the Activity [16] was 74% and 71% and the Activity [17] was 100% and 86%. For the same compound, the Activity [18] was 100% and 97%, the Activity [19] was 100% and 80% and the Activity [20] was 86% and 83%. For the same compound, the Activity [21] was 79% and 100%, the Activity [22] was 97% and 74% and the Activity [23] was 100% and 92%. For the same compound, the Activity [24] was 89% and 68%, the Activity [25] was 98% and 96% and the Activity [26] was 86% and 83%. For the same compound, the Activity [27] was 91% and 81%, the Activity [28] was 96% and 72% and the Activity [29] was 90% and 83%. The Activity [30] was 74% and 53% and the inhibition [31] was > 65%.

From ChEMBL document CHEMBL4804286, “3-amino-4-(4-(4 (dimethylcarbamoyl) phenyl)-1,4-diazepan-1-yl) thieno [2,3-b] pyridine-2-carboxamide for use in cancer therapy and formulations comprising the same” (2020)
